Like-named read-outs stand apart in the source and are kept apart here. Blank lines part the entries; values can stand above or below the compound they belong to.
Key:
HepG2 cells [1] = settings: cited from earlier work; for Structural based (HCI), In vitro Assay: HepG2 HCI
human hepatocytes = settings: In vitro Assay; ref Xu 2008; cited from earlier work
[2] = cited from earlier work
[3] = cited from earlier work; remark: listed apart in the source
[4] = system: THLE or HepG2 cells, isolated mitochondria, BSEP; settings: cited from earlier work
HepG2 cells [5] = settings: cited from earlier work
HepG2 cells [6] = settings: In vitro Assay; ref Persson 2013; cited from earlier work
PHH = settings: cited from earlier work; for PHH ATP <100uM: In vitro Assay, ref Proctor 2017
hLiMTs [7] = settings: cited from earlier work; for hLiMTs ATP <100uM: In vitro Assay, ref Proctor 2017
[8] = system: THLE-Null and THLE-3A4 cells; settings: In vitro Assay; ref Gustafsson 2014; cited from earlier work
[9] = system: isolated mouse liver mitochondria; settings: In vitro Assay; ref Porceddu 2012; cited from earlier work
hLiMTs [10] = assay: Combined HCI (HCS) and cellular ATP 3D assay in hLiMTs; settings: for AC50 / minimal effective concentration: Homo sapiens
HepaRG spheroids = assay: Combined HCI (HCS) and cellular ATP 3D assay in HepaRG spheroids; settings: HepaRG; for AC50 / minimal effective concentration: Homo sapiens
[11] = system: HepG2 cells, primary human hepatocytes; settings: In vitro Assay; ref Garside 2014; cited from earlier work
[12] = In vitro Assay, ref Tolosa 2012
[13] = In vitro Assay, ref O'Brien 2006
[14] = assignment in Tolosa 2012, ref Tolosa 2012

SMILES: CC(=O)Nc1cccc(O)c1 [3-acetamidophenol]
Structural based (HCI) (HepG2 cells [1]; [12]): -VE | Structural based (HCI) (human hepatocytes): -VE | In vivo DILI ([2]; ref O'Brien 2006): -VE | In vivo DILI ([2]; ref Tolosa 2012): -VE | In vivo DILI ([2]; ref Xu 2008): -VE

SMILES: NCC[C@H](O)C(=O)N[C@@H]1C[C@H](N)[C@@H](O[C@H]2O[C@H](CN)[C@@H](O)[C@H](O)[C@H]2O)[C@H](O)[C@H]1O[C@H]1O[C@H](CO)[C@@H](O)[C@H](N)[C@H]1O [amikacin]
DILI +VE (5-8), DILI -VE (-4) ([3]; ref Chen 2016): -VE | DILI severity category ([3]; ref Chen 2016): vNo-DILI-Concern | Structural based (HCI) (HepG2 cells [1]; [12]): -VE | Partition Hybrid HRM Score ([4]; In vitro Assay, ref Aleo 2019): +VE | Ro2 Hybrid HRM Score ([4]; In vitro Assay, ref Aleo 2019): +VE | In vivo DILI ([2]; ref Aleo 2019): -VE | In vivo DILI ([2]; ref Tolosa 2012): +VE

hLiMTs <10 uM All (hLiMTs [10]; hLiMTs, all endpoints, cut-off <10 uM): +ve (<10 uM) | HepaRG <10 uM All (HepaRG spheroids; all endpoints, cut-off <10 uM): +ve (<10 uM)
SMILES: CCCCc1oc2ccccc2c1C(=O)c1cc(I)c(OCCN(CC)CC)c(I)c1 [amiodarone]
Structural based (HCI) (HepG2 cells [5]; [13]): +VE | Cluser analysis (HepG2 cells [6]): +VE | Structural based (HCI) (HepG2 cells [6]): +VE | Structural based (HCI) (HepG2 cells [1]; [12]): +VE | PHH/100uM, Proctor (2017) (PHH; 2D PHH, ATP, IC50 threshold 100 µM, ref Proctor et al. 2017): +VE (IC50 threshold of 100 µM) | PHH ATP <100uM (PHH): +VE (IC50 threshold of 100 µM) | hLiMTs ATP <100uM (hLiMTs [7]): +VE (IC50 threshold of 100 µM) | hLiMTs/100uM, Proctor (2017) (hLiMTs [7]; hLiMTs, ATP, IC50 threshold 100 µM, ref Proctor et al. 2017): +VE (IC50 threshold of 100 µM) | THLE-Null [8]: +VE | in vitro data EC20<=2uM [9]: +VE | AC50 (hLiMTs [10]; read-out: ATP endpoint AC50): 5.33 µM | minimal effective concentration (hLiMTs [10]; read-out: ATP endpoint MEC): 4.58 µM | AC50 (hLiMTs [10]; read-out: HCS endpoint AC50): 28.2 µM | minimal effective concentration (hLiMTs [10]; read-out: HCS endpoint MEC): 6.51 µM | AC50 (HepaRG spheroids; read-out: ATP endpoint AC50): 112 µM | minimal effective concentration (HepaRG spheroids; read-out: ATP endpoint MEC): 98.8 µM | AC50 (HepaRG spheroids; read-out: HCS endpoint AC50): 13.1 µM | minimal effective concentration (HepaRG spheroids; read-out: HCS endpoint MEC): 4.62 µM

SMILES: CN(C)CCC=C1c2ccccc2CCc2ccccc21 [amitriptyline]
DILI +VE (5-8), DILI -VE (-4) ([3]; ref Chen 2016): +VE | DILI severity category ([3]; ref Chen 2016): vLess-DILI-Concern | Structural based (HCI) (HepG2 cells [5]; [13]): -VE | Cluser analysis (HepG2 cells [6]): +VE | Structural based (HCI) (HepG2 cells [6]): +VE | Structural based (HCI) (HepG2 cells [1]; [12]): +VE | Structural based (HCI) (human hepatocytes): -VE | PHH ATP <100uM (PHH): +VE (IC50 threshold of 100 µM) | hLiMTs ATP <100uM (hLiMTs [7]): +VE (IC50 threshold of 100 µM) | In vivo DILI ([2]; […]): +VE | In vivo DILI ([2]; ref Garside 2014): +VE | In vivo DILI ([2]; ref O'Brien 2006): +VE | In vivo DILI ([2]; ref Persson 2013): +VE | In vivo DILI ([2]; ref Proctor 2017): +VE | In vivo DILI ([2]; ref Tolosa 2012): +VE | In vivo DILI ([2]; ref Xu 2008): -VE | Cluster 1-6 +VE Assay [11]: +VE

SMILES: CCN(CC)CCCC(C)Nc1ccnc2cc(Cl)ccc12 (stereo not drawn) [chloroquine]
DILI +VE (5-8), DILI -VE (-4) ([3]; in vivo): +VE | DILI severity category ([3]; in vivo): vLess-DILI-Concern | Structural based (HCI) (HepG2 cells [5]): +VE | Structural based (HCI) (HepG2 cells [1]): +VE | Ro2 Hybrid HRM Score [4]: +VE

SMILES: C[S+](C)[O-] [dimethyl dulfoxide]
Cluser analysis (HepG2 cells [6]): -VE | Structural based (HCI) (HepG2 cells [6]): -VE | Structural based (HCI) (HepG2 cells [1]; [12]): -VE | In vivo DILI ([2]; ref Persson 2013): -VE | In vivo DILI ([2]; ref Tolosa 2012): -VE

SMILES: N[C@H]1C(O)O[C@H](CO)[C@H](O)[C@@H]1O (stereo partly drawn) [galactosamine]
Structural based (HCI) (HepG2 cells [1]; [12]): -VE | In vivo DILI ([2]; ref O'Brien 2006): +VE | In vivo DILI ([2]; ref Tolosa 2012): +VE

SMILES: C[C@H](CCC(=O)NCC(=O)O)[C@H]1CC[C@H]2[C@@H]3[C@H](O)C[C@@H]4C[C@H](O)CC[C@]4(C)[C@H]3CC[C@]12C [glycochenodeoxycholate]
Structural based (HCI), In vitro Assay (HepG2 cells [1]; ref Tolosa 2012): +VE | In vivo DILI [2, 14]: +VE

SMILES: CC[C@H](C)C(=O)O[C@H]1C[C@@H](C)C=C2C=C[C@H](C)[C@H](CC[C@@H]3C[C@@H](O)CC(=O)O3)[C@H]21 [lovastatin]
Structural based (HCI) (HepG2 cells [5]; [13]): -VE | Structural based (HCI) (HepG2 cells [1]; [12]): +VE | Structural based (HCI) (human hepatocytes): -VE | in vitro data EC2<=1x Cmax [9]: -VE | in vitro data EC20<=2uM [9]: +VE

SMILES: CCOC(=O)CC(SP(=S)(OC)OC)C(=O)OCC (stereo not drawn) [malathion]
Structural based (HCI), In vitro Assay (HepG2 cells [1]; ref Tolosa 2012): +VE | In vivo DILI [2, 14]: +VE

SMILES: CNCCCC12CCC(c3ccccc31)c1ccccc12 [maprotiline]
DILI +VE (5-8), DILI -VE (-4) ([3]; ref Chen 2016): -VE | DILI severity category ([3]; ref Chen 2016): Ambiguous DILI-concern | Structural based (HCI) (HepG2 cells [1]; [12]): +VE | Structural based (HCI) (human hepatocytes): -VE | Partition Hybrid HRM Score ([4]; In vitro Assay, ref Aleo 2019): +VE | Ro2 Hybrid HRM Score ([4]; In vitro Assay, ref Aleo 2019): +VE | In vivo DILI ([2]; […]): -VE | In vivo DILI ([2]; ref Tolosa 2012): +VE | In vivo DILI ([2]; ref Xu 2008): -VE

SMILES: CC1=CC(=O)c2ccccc2C1=O [menadione]
Structural based (HCI) (HepG2 cells [5]; [13]): +VE (lowest HCI endpoint IC50 (or in the absence of dose–response < 100 µM) < 30 × total human plasma exposure levels (Cmax.tot)) | Cluser analysis (HepG2 cells [6]): +VE | Structural based (HCI) (HepG2 cells [6]): +VE | Structural based (HCI) (HepG2 cells [1]; [12]): +VE | In vivo DILI ([2]; ref O'Brien 2006): -VE | In vivo DILI ([2]; ref Persson 2013): +VE | In vivo DILI ([2]; ref Tolosa 2012): +VE

Source: PMC7395068, “The evolution of strategies to minimise the risk of human drug-induced liver injury (DILI) in drug discovery and development” (Archives of Toxicology, 2020)
